ChEMBL document CHEMBL4673334, “In Vivo Biological Evaluation of a Synthetic Royleanone Derivative as a Promising Fast-Acting Trypanocidal Agent by Inducing Mitochondrial-Dependent Necrosis” (J Nat Prod, 2020)
The source made the active and inactive calls. The rule behind the calls is not given here.

Assays:
Trypanosoma cruzi [1] = experiment: Inhibition of Trypanosoma cruzi MHOM/Pe/2011/Arequipa(DTU V) epimastigote form Fe-SOD at 25 uM by UV-VIS spectrophotometric method relative to control
Trypanosoma cruzi [2] = experiment: Inhibition of Trypanosoma cruzi MHOM/Pe/2011/Arequipa(DTU V) epimastigote form Fe-SOD at 12.5 uM by UV-VIS spectrophotometric method relative to control
Trypanosoma cruzi [3] = experiment: Antitrypanosomal activity against Trypanosoma cruzi MHOM/Pe/2011/Arequipa(DTU V) amastigote form infected in BALB/c mouse assessed as reduction in spleen enlargement at 20 mg/kg, po administered for 5 days starting at 100 days post infection and measured after 145 days post infection; assay type: functional, organism-based; conditions: time 5.0 day
Trypanosoma cruzi [4] = experiment: Antitrypanosomal activity against Trypanosoma cruzi MHOM/Pe/2011/Arequipa(DTU V) amastigote form infected in BALB/c mouse assessed as reduction in spleen enlargement at 20 mg/kg, po administered for 5 days starting at 9 days post infection and measured after 145 days post infection; assay type: functional, organism-based; conditions: time 5.0 day
Trypanosoma cruzi [5] = experiment: Antitrypanosomal activity against Trypanosoma cruzi MHOM/Pe/2011/Arequipa(DTU V) amastigote form infected in BALB/c mouse assessed as reduction in parasite growth at 20 mg/kg, po administered for 5 days starting at 100 days post infection and measured up to 106 days post infection by ELISA assay; assay type: functional, organism-based; conditions: time 5.0 day
Trypanosoma cruzi [6] = experiment: Antitrypanosomal activity against Trypanosoma cruzi MHOM/Pe/2011/Arequipa(DTU V) amastigote form infected in BALB/c mouse assessed as reduction in parasitaemia at 20 mg/kg, po for 5 days starting at 9 days post infection and measured after 7 days post infection relative to control; assay type: functional; set-up: scale not given: the % may be the effect or the level left; conditions: time 5 day
Trypanosoma cruzi [7] = experiment: Antitrypanosomal activity against Trypanosoma cruzi MHOM/Pe/2011/Arequipa(DTU V) amastigote form infected in BALB/c mouse assessed as reduction in parasitaemia at 20 mg/kg, po for 5 days starting at 9 days post infection and measured after 13 to 35 days post infection; assay type: functional, organism-based; conditions: time 5.0 day

## COC(=O)[C@]1(C)CCC[C@]2(C)C3=C(C=C[C@@H]12)C(=O)C(C(C)C)=CC3=O
Trypanosoma cruzi [1]
  inhibition: 100%
Trypanosoma cruzi [2]
  inhibition: 80%
Trypanosoma cruzi [3]
  Activity: Active
Trypanosoma cruzi [4]
  Activity: Active
Trypanosoma cruzi [5]
  Activity: Active
Trypanosoma cruzi [6]
  Activity: 65%
Trypanosoma cruzi [7]
  Activity: Active
